Data published in patent US20190060275A1, “Administration of hypoxia activated prodrugs and antiangiogenic agents for the treatment of cancer” (Molecular Templates, Inc., priority 2010, published 2019).
Like-named read-outs stand apart in the source and are kept apart here. Marks after values point to notes of the source that are not given here.

Experiments:
[1] = system: 786-O human renal cell carcinoma (RCC) xenograft; assay: Tumor growth inhibition in 786-O RCC xenograft; format: in vivo, nude mice
[2] = system: 786-O human renal cell carcinoma (RCC) xenograft; assay: Tumor growth inhibition in 786-O RCC xenograft; format: in vivo, nude mice; remark: listed apart in the source
Method: (§1) Xenograft tumors were established by s.c. implantation of 5×10^6 786-O human renal cell carcinoma (RCC), 5×10^6 A375 melanoma, or 1×10^6 H460 human non-small cell lung cancer (NSCLC) cells into the flanks of nude mice, or 5×10^6 PLC/PRF/5 hepatocellular carcinoma (HCC) into the flanks of Severe Combined Immunodeficient (SCID) mice. Tumor hypoxia was detected by pimonidazole immunostaining, and morphometric analysis was performed to determine the hypoxic fraction. When tumor size was approximately 100-150 mm^3, sunitinib or sorafenib was administered daily. Sunitinib at 20, 40, or 80 mg/kg was administered p.o. daily for 3 weeks (QDx21). For all of these studies except the study utilizing the A375 melanoma model, TH-302 administration began one week after antiangiogenic agent administration. In the A375 melanoma model, TH-302 administration was begun on the same day as sorafenib administration. TH-302 at 50 mg/kg was administered i.p. daily for 5 days on and 2 days off (QDx5) for 2 weeks. Sunitinib was administered 4 hours before TH-302 on days when both agents were given.
The following tables summarize the data obtained in the studies described above.

[3] = Maximum body weight loss (toxicity indicator) in xenograft-bearing nude mice
Method: as §1
(§2) In another study, sunitinib was administered for 5 weeks, and TH-302 was administered for 4 weeks, beginning one week after sunitinib therapy was initiated, in accordance with the methods of the invention.

[4] = Maximum body weight loss in PLC/PRF/5 xenograft-bearing SCID mice; settings: HCC: PLC/PRF/5; Sorafenib 20 mpk; TH-302 50 mpk; vehicle 5.9
Method: as §1, §2

[5] = system: PLC/PRF/5 hepatocellular carcinoma (HCC) xenograft; assay: Tumor growth inhibition in PLC/PRF/5 HCC xenograft; format: in vivo, SCID mice; settings: HCC: PLC/PRF/5; Sorafenib 20 mpk QD×16; TH-302 50 mpk
Method: as §1

[6] = system: 786-O RCC xenograft tumors; assay: Antiangiogenic-induced hypoxia in 786-O xenograft tumors (pimonidazole / Hoechst 33342, morphometric analysis); format: in vivo, nude mice; settings: for tumor hypoxia volume: vehicle 0.8±0.2%; for hypoxic fraction in the 786-O xenograft tumor: morphometric analysis, vehicle 1.4±0.9%
Method: To measure the extent of tumor hypoxia and to illustrate methods for increasing the hypoxic fraction of a tumor with an antiangiogenic agent, so as to render the tumor more susceptible to treatment with a hypoxia activated prodrug, nude mice bearing 786-O RCC xenograft tumors were randomized into 3 groups, vehicle (8 mice), sunitinib (Sutent, Pfizer) 20 mg/kg and 40 mg/kg, QDx5, oral, respectively (6 mice each). Seventy one hours after the last sunitinib administration, pimonidazole was administered. Hoechst 33342 was administered 1 hour after administering pimonidazole. About a minute after administering the Hoechst 33342, the animals were sacrificed and tissues harvested.
Sorafenib 20 mpk (mgs per kilogram) and 40 mpk were orally administered once daily for 7 days. Pimonidazole was administered 3 h after the last sorafenib administration. Hoechst 33342 was administered 1 h after administering pimonidazole. About a minute after administering the Hoechst 33342, the animals were sacrificed and tissues harvested.

[7] = system: H460 human non-small cell lung cancer (NSCLC) xenograft; assay: Tumor growth inhibition in H460 NSCLC xenograft; format: in vivo, nude mice
Method: as §1, §2

[8] = system: RCC; settings: cited from earlier work
[9] = system: A375 melanoma xenograft; assay: Tumor growth inhibition in A375 melanoma xenograft; format: in vivo, nude mice; settings: Sorafenib 20 mpk QD×16, TH-302 50 mpk begun on the same day as sorafenib
Method: as §1

[10] = system: PLC/PRF/5 hepatocellular cancer xenograft tumor; assay: Sorafenib-induced hypoxia in PLC/PRF/5 xenograft tumors; settings: vehicle 4.3±0.4%
Method: The hypoxia level in another cancer, hepatocellular cancer PLC/PRF/5, after sorafenib administration was also measured. The measurement was carried out as above, except that sorafenib was administered at 20 or 40 mg/kg once daily for 8 days.

[11] = system: H460 non small cell lung cancer (NSCLC) xenograft tumors; assay: Sunitinib-induced hypoxia in H460 xenograft tumors (pimonidazole / Hoechst 33342, morphometrics); format: in vivo, nude mice; settings: sunitinib 40 mg/kg QDx5 intraperitoneally; vehicle 7.3±3.8%; p<0.05
Method: To measure the extent of tumor hypoxia and to illustrate methods for increasing the hypoxic fraction of a tumor with an antiangiogenic agent, so as to render the tumor more susceptible to treatment with a hypoxia activated prodrug, nude mice bearing H460 non small cell lung cancer (NSCLC) xenograft tumors were intraperitoneally administered sunitinib with the dose of 20 mg/kg and 40 mg/kg. QDx5, respectively (5 mice each), and compared with vehicle treated animals (5 mice). […] The percent hypoxic fraction in the harvested tissue was analyzed by morphometrics.

[12] = system: breast cancer; settings: cited from earlier work
[13] = system: metastatic renal cell carcinoma (mRCC); settings: cited from earlier work
[14] = system: RCC; settings: cited from earlier work; remark: listed apart in the source
[15] = NSCLC: H460, Sorafenib 20 mpk QD×16, TH-302 50 mpk
[16] = RCC: 786-O, Sorafenib 30 mpk QD×14, TH-302 50 mpk QDx5/week for two weeks
[17] = Melanoma: A375, Sorafenib 20 mpk, TH-302 50 mpk
[18] = NSCLC: H460, Sorafenib 20 mpk, TH-302 50 mpk
[19] = RCC: 786-O, Sorafenib 30 mpk, TH-302 50 mpk
[20] = H460, Sunitinib 5 wks + TH-302 4 wks, sunitinib 40 mpk, alone or with TH-302
[21] = H460, Sunitinib 5 wks + TH-302 4 wks, sunitinib 80 mpk, alone or with TH-302
[22] = H460, Sunitinib 3 wks + TH-302 2 wks study, TH-302 50 mpk monotherapy
[23] = H460, Sunitinib 5 wks + TH-302 4 wks study, TH-302 50 mpk monotherapy

Compound: CO[C@H]1C[C@@H]2CC[C@@H](C)[C@@](O)(O2)C(=O)C(=O)N2CCCC[C@H]2C(=O)O[C@H]([C@H](C)C[C@@H]2CC[C@@H](OCCO)[C@H](OC)C2)CC(=O)[C@H](C)/C=C(\C)[C@@H](O)[C@@H](OC)C(=O)[C@H](C)C[C@H](C)/C=C/C=C/C=C/1C [Everolimus, everolimus]
- TGI (%) ([1]; Everolimus 5 mpk QD×19 monotherapy): 48.8* %
- TGI ([2]; 786-O RCC, TH-302 50 mgs per kg QD×19 or 12 days from Day 8, everolimus QD×19): less than 50%
- Max. BW loss (%) ([3]; 786-O RCC, Everolimus 5 mpk monotherapy): 0%

Compound: CNC(=O)c1cc(Oc2ccc(NC(=O)Nc3ccc(Cl)c(C(F)(F)F)c3)cc2)ccn1 [Sorafenib, sorafenib]
- Max. BW loss (%) [4]: 5.6%
- TGI (%) [5]: 56 * %
- tumor hypoxia volume ([6]; sorafenib 20 mg/kg orally once daily for 7 days): 3.5±1.6%
- tumor hypoxia volume ([6]; sorafenib 40 mg/kg orally once daily for 7 days, p<0.05 vs. vehicle): 10±2.5%
- TGI (%) [7, 15]: 74 * %
- median PFS ([8]; placebo 12 weeks): 24 weeks
- OS ([8]; placebo 14.3 months): 17.8 months
- TGI (%) [9]: 67 * %
- TGI (%) [2, 16]: 38 * %
- Max. BW loss (%) [3, 17]: 3.1%
- Max. BW loss (%) [3, 18]: 4.8%
- Max. BW loss (%) [3, 19]: 0.4%
- tumor hypoxia volume ([10]; sorafenib 20 mg/kg once daily for 8 days, p<0.05 vs. vehicle): 6.5±0.6%
- tumor hypoxia volume ([10]; sorafenib 40 mg/kg once daily for 8 days, p<0.001 vs. vehicle): 9.3±0.7%

Compound: CCN(CC)CCNC(=O)c1c(C)[nH]c(/C=C2\C(=O)Nc3ccc(F)cc32)c1C [Sunitinib, sunitinib]
- hypoxic fraction in the 786-O xenograft tumor ([6]; sunitinib 20 mg/kg QDx5 oral): 1.6±0.9%
- hypoxic fraction in the 786-O xenograft tumor ([6]; sunitinib 40 mg/kg QDx5 oral): 17.2±0.9%
- tumor hypoxia volume (percent hypoxic fraction) [11]: 24±3.2%
- TGI (%) ([7]; H460, Sunitinib 3 wks + TH-302 2 wks, sunitinib 40 mpk, alone or with TH-302 50 mg/kg): 72.9* %
- TGI (%) ([7]; H460, Sunitinib 3 wks + TH-302 2 wks, sunitinib 80 mpk, alone or with TH-302 50 mg/kg): 77.7* %
- TGI (%) ([7]; H460, Sunitinib 3 wks + TH-302 2 wks, sunitinib 80 mpk, alone or with TH-302 50 mg/kg, listed as sunitinib): 78%
- TGI (%) [7, 20]: 83* %
- TGI (%) [7, 21]: 96* %
- TGI (%) ([2]; 786-O, sunitinib 20 mpk p.o. QDx21, alone or with TH-302 50 mg/kg begun one week later): 16.2%
- TGI (%) ([2]; 786-O, sunitinib 40 mpk p.o. QDx21, alone or with TH-302 50 mg/kg begun one week later): 37.9%
- TGI (%) ([2]; 786-O, sunitinib 40 mpk p.o. QDx21, alone or with TH-302 50 mg/kg begun one week later, listed as sunitinib): 38%
- Max. BW loss (%) ([3]; 786-O study, sunitinib 20 mpk, alone or with TH-302): 0%
- Max. BW loss (%) ([3]; 786-O study, sunitinib 40 mpk, alone or with TH-302): 0%
- Max. BW loss (%) ([3]; H460, Sunitinib 3 wks + TH-302 2 wks, sunitinib 40 mpk, alone or with TH-302): 0%
- Max. BW loss (%) ([3]; H460, Sunitinib 3 wks + TH-302 2 wks, sunitinib 80 mpk, alone or with TH-302): 0%
- Max. BW loss (%) [3, 20]: 0.1%
- Max. BW loss (%) [3, 21]: 0.5%

Compound: Cn1c(COP(=O)(NCCBr)NCCBr)cnc1[N+](=O)[O-] [TH-302]
- Max. BW loss (%) [4]: 6.3%
- TGI (%) [5]: 15%
- TGI (%) [7, 22]: 67.6* %
- TGI (%) [7, 23]: 81* %
- TGI (%) [7, 15]: 78 * %
- TGI ([1]; TH-302 50 mgs per kg QD×19 or 12 days from Day 8, everolimus QD×19): 16%
- TGI (%) ([1]; TH-302 50 mpk from Day 1 (QD×19), alone or with Everolimus 5 mpk QD×19): 15.7%
- TGI (%) ([1]; TH-302 50 mpk from Day 8 (12 days), alone or with Everolimus 5 mpk QD×19): 14.2%
- TGI (%) [9]: 46 * %
- TGI (%) ([2]; 786-O, TH-302 50 mpk i.p. QDx5 for 2 weeks, monotherapy): 9.9%
- TGI (%) [2, 16]: 15%
- Max. BW loss (%) ([3]; 786-O RCC, TH-302 50 mpk from Day 1, alone or with Everolimus 5 mpk): 0.2%
- Max. BW loss (%) ([3]; 786-O RCC, TH-302 50 mpk from Day 8, alone or with Everolimus 5 mpk): 0%
- Max. BW loss (%) ([3]; 786-O study, TH-302 50 mpk monotherapy): 0.1%
- Max. BW loss (%) [3, 22]: 7.1%
- Max. BW loss (%) [3, 23]: 0.6%
- Max. BW loss (%) [3, 17]: 1.8%
- Max. BW loss (%) [3, 18]: 4.8%
- Max. BW loss (%) [3, 19]: 0%

Compound: CC(=O)O[C@H]1C(=O)[C@@]2(C)[C@H]([C@H](OC(=O)c3ccccc3)[C@]3(O)C[C@H](OC(=O)[C@H](O)[C@@H](NC(=O)c4ccccc4)c4ccccc4)C(C)=C1C3(C)C)[C@]1(OC(C)=O)CO[C@@H]1C[C@@H]2O [paclitaxel]
- OS [12]: 26.5 months
- median PFS [12]: 5.8 months

Compound: IFN-α
- OS [13]: 23 months
- median PFS [13]: 5.4 months
- OS [14]: 21.8 months
- median PFS [14]: 5 months
